Measured values taken from paper PMC7913291, “Synthesis and Anti-Hepatocarcinoma Effect of Amino Acid Derivatives of Pyxinol and Ocotillol” (Molecules, 2021).
Like-named read-outs stand apart in the source and are kept apart here.

Assays:
[1] = test system: VEGF; experiment: Serum VEGF level in H22 tumor-bearing mice; format: in vivo, Kunming mice; settings: mean ± SD
Procedure: (§1) Cyclophosphamide (CTX), used as the positive drug, was purchased from Sigma (St. Lousis, MO, USA. Detecting kits for IL-2, TNF-α, VEGF, AST, ALT, CRE and BUN were purchased from Nanjing Jiancheng Biotechnology Co. (Nanjing, China).
(§2) 24 h after the last administration, the whole blood was collected from the orbit. Serum was obtained from whole blood by centrifugation (3500 rpm, 15 min, 4 °C) and stored at −20 °C. The levels of IL-2, TNF-α, VEGF, AST, ALT, BUN and CRE in serum were determined in accordance with the procedures described in commercial kit instructions.

[2] = test system: HepG2 cells; experiment: Cytotoxic activity on HepG2 cells (CCK-8 assay); format: cell-based; settings: Homo sapiens, read-out: IC50 over HepG2 cells
Procedure: Human hepatocellular liver carcinoma cell line (HepG2) were obtained from Institute of Biochemistry and Cell Biology, Academy of Science (Shanghai, China) and were authenticated using the STR profiling method. HepG2 cells were cultured in MDEM (Gibco, Waltham, MA, USA) supplemented with 10% fetal bovine serum (FBS) and 1% penicillin-streptomycin bubbled with 5% CO2-enriched air at a temperature of 37 °C (Thermo Scientific, Waltham, MA, USA). The cytotoxic effect of compounds on HepG2 cells was assessed by using CCK-8 method. Briefly, HepG2 cells were cultured in 96-well plates at a density of 5 × 10^3 cells per well for 24 h. […] Three replicates were performed. The relative cell viability was expressed as percentage relative to the untreated cells. The inhibition ratio was calculated. The IC50 values were calculated using Logistic regression from three independent tests.

[3] = test system: IL-2; experiment: Serum IL-2 level in H22 tumor-bearing mice; format: in vivo, Kunming mice; settings: mean ± SD
Procedure: as §1, §2

[4] = test system: H22 transplanted tumor; experiment: Antitumor activity in H22 tumor-bearing mice (tumor weight, volume, inhibition rate, tumor histology); format: in vivo, Kunming mice
Procedure: Hepatocellular carcinoma cell line (H22) was purchased from the Cell Bank of Type Culture Collection Committee of Chinese Academy of Sciences (Shanghai, China), and cultured in Dulbecco's modified eagle medium supplemented with 10% fetal calf serum and then cultured at 37 °C in 5% CO2. […] (Changchun, China). All the mice, given food and water ad libitum, were raised in temperature and humidity controlled (23 ± 2 °C, 50 ± 10% humidity) environment under a 12 h light/dark cycle. The mice were acclimatized for at least 1 week before use. The animal experiments were performed in accordance with the guidelines for the Care and Use of Laboratory Animals and approved by the ethics committee of School of Pharmaceutical Sciences, Jilin University, China. H22 cells, resuspended in normal saline with final concentration of 5 × 10^6 cells/mL, were injected into the abdominal cavity of mice under aseptic conditions. After 1 week, ascites tumor cells were extracted and dispersed with physiological saline to a concentration of 1 × 10^7 cells/mL.

[5] = test system: TNF-α; experiment: Serum TNF-α level in H22 tumor-bearing mice; format: in vivo, Kunming mice; settings: mean ± SD
Procedure: as §1, §2

[6] = Hepatic and renal function (serum ALT, AST, CRE, BUN) in H22 tumor-bearing mice
Procedure: as §1, §2

[7] = Histopathological examination of liver and kidney (H&E staining); settings: H22 tumor-bearing mice; CTX 20 mg/kg
Procedure: (§3) Mice were then killed by cervical dislocation after blood collected. The tumor, liver and kidney were rapidly separated, weighted and dissected for histopathological examination.
The tissue of tumor, liver and kidney from each mouse was quickly fixed in 10% neutral-buffered formalin for histopathology. The H&E staining of H22 solid tumor, liver and kidney tissue were embedded in paraffin and sectioned into sections with a thickness of 5 µm which were conducted following the manufacturer’s instructions in respective kit. Tumor, liver and kidney tissue sections were observed by light microscopy (Leica DM750, Solms, Germany) and recorded by photography (×400).

[8] = Body weight and organ indexes in H22 tumor-bearing mice
Procedure: Before administration every day, the tumor size and body weight were measured. When the tumor was larger than 20 mm in diameter, animals were euthanized according to the IACUC proposals.
as §3
The liver and kidney indexes were calculated as follows: organ index (mg/g) =average weight of organ/average body weight.

[9] = cited from earlier work
[10] = rat, in vivo; cited from earlier work
[11] = HepG2, CCK-8, 48 h, mean of three experiments ±SD
[12] = 25 mg/kg intragastrically once a day for 14 days
[13] = 50 mg/kg intragastrically once a day for 14 days
[14] = 20 mg/kg intragastrically once a day for 14 days
[15] = serum, H22 tumor-bearing mice, 20 mg/kg

In the case of `CC(C)(O)[C@H]1CC[C@@](C)(C2CC[C@]3(C)C2[C@H](O)CC2[C@@]4(C)CC[C@H](OC(=O)C5CCCN5)C(C)(C)C4CC[C@]23C)O1` (stereo partly drawn) [2e, (20S, 24R)-Epoxy-3β-O-(L-prolyl)-dammarane-12β, 25-diol], the VEGF level ([1]; n = 6, 25 mg/kg) is reported as 158.32 ± 15.97 ^##, * pg/mL, the VEGF level ([1]; n = 6, 50 mg/kg) is reported as 127.62 ± 17.46 ^##, ** pg/mL and the VEGF level ([1]; n = 6, 100 mg/kg) is reported as 114.67 ± 15.42 pg/mL. The IC50 [2, 11] was 11.3 ± 0.43 µM, the IL-2 level ([3]; n = 6, 25 mg/kg) was 111.13 ± 13.28 pg/mL and the IL-2 level ([3]; n = 6, 50 mg/kg) was 136.86 ± 22.66 pg/mL. The IL-2 level ([3]; n = 6, 100 mg/kg) was 174.11 ± 28.90 pg/mL, the “Inhibitory Rate (tumor inhibition rate, TIR)” value (“Inhibitory Rate” below) [4, 12] was 16.20% and the “Tumor Weight” value [4, 12] was 1.35 ± 0.26 g. For the same compound, the “Inhibitory Rate” value [4, 13] was 24.76%, the “Tumor Weight” value [4, 13] was 1.21 ± 0.34 g and the “Tumor Weight” value ([4]; 100 mg/kg intragastrically once a day for 14 days) was 1.04 ± 0.23 g. For the same compound, the “Inhibitory Rate” value ([4]; 100 mg/kg intragastrically once a day for 14 days, listed as Compound 2e, 100 mg/kg) was 35.32%, the “Inhibitory Rate” value ([4]; 100 mg/kg intragastrically once a day for 14 days, listed as compound 2e, 100 mg/kg) was 35.32% and the “Effect on tumor volume compared to the model group” value ([4]; 50, 100 mg/kg, p < 0.05, p < 0.01) was “significantly reduce”. For the same compound, the TNF-α level ([5]; n = 6, 25 mg/kg) was 287.01 ± 39.10 pg/mL, the TNF-α level ([5]; n = 6, 50 mg/kg) was 321.97 ± 55.57 pg/mL and the TNF-α level ([5]; n = 6, 100 mg/kg) was 358.35 ± 45.19 pg/mL. The ALT ([6]; mouse, in vivo, 25 mg/kg) was 43.62 ± 5.15 ^##, ** IU/L, the AST ([6]; mouse, in vivo, 25 mg/kg) was 42.51 ± 5.22 ^##, ** IU/L and the CRE ([6]; mouse, in vivo, 25 mg/kg) was 31.17 ± 9.03 µmol/L. For the same compound, the ALT ([6]; mouse, in vivo, 50 mg/kg) was 42.31 ± 5.00 ^##, ** IU/L, the AST ([6]; mouse, in vivo, 50 mg/kg) was 38.69 ± 6.43 ^##, ** IU/L and the BUN ([6]; mouse, in vivo, 50 mg/kg) was 11.06 ± 2.16 mmol/L. The CRE ([6]; mouse, in vivo, 50 mg/kg) was 28.95 ± 9.16 µmol/L, the ALT ([6]; mouse, in vivo, 100 mg/kg) was 35.37 ± 3.32 ^##, ** IU/L and the AST ([6]; mouse, in vivo, 100 mg/kg) was 31.47 ± 4.48 ^#, ** IU/L. It also gave a BUN ([6]; mouse, in vivo, 100 mg/kg) of 10.32 ± 2.77 mmol/L and a CRE ([6]; mouse, in vivo, 100 mg/kg) of 26.93 ± 10.60 µmol/L.
In the case of `O=P1(N(CCCl)CCCl)NCCCO1` (stereo not drawn) [Cyclophosphamide, reference compound], the “Liver and kidney cell morphology (H&E)” value [7] is reported as “many vacuoles and edema”, the VEGF level ([1]; n = 6, 20 mg/kg) is reported as 103.43 ± 14.00 pg/mL and the “Body weight D14” value [8, 14] is reported as 32.76 ± 3.14 g. For the same compound, the “Increase of Body Weight” value [8, 14] was 11.56 ± 3.23 g, the “Kidney Index” value [8, 14] was 13.27 ± 1.96 mg/g and the “Liver Index” value [8, 14] was 51.54 ± 7.69 mg/g. The “Body weight D1” value ([8]; D1, 20 mg/kg group) was 21.20 ± 1.71 g, the IC50 ([2]; HepG2, 48 h) was 9.18 ± 0.34 µM and the IL-2 level ([3]; n = 6, 20 mg/kg) was 110.52 ± 17.54 pg/mL. For the same compound, the “Inhibitory Rate” value [4, 14] was 49.69%, the “Tumor Weight” value [4, 14] was 0.81 ± 0.18 g and the “Effect on tumor volume compared to the model group” value ([4]; CTX 20 mg/kg, p < 0.01) was “significantly reduce”. The TNF-α level ([5]; n = 6, 20 mg/kg) was 207.47 ± 23.37 ^##, ** pg/mL, the ALT [6, 15] was 50.61 ± 3.22 ^##, ** IU/L and the AST [6, 15] was 53.47 ± 5.04 ^##, ** IU/L. For the same compound, the BUN [6, 15] was 14.23 ± 2.38 ^##, * mmol/L and the CRE [6, 15] was 32.86 ± 7.74 µmol/L.
For `CC(C)(O)C1CCC(C)(C2CCC3(C)C2C(O)CC2C4(C)CCC(O)C(C)(C)C4C(O)CC23C)O1` (stereo not drawn) [Ocotillol], the “plasma protein binding rates” value [9] is listed as “high”, the IC50 [2, 11] is listed as 92.7 ± 3.07 µM and the absorption into blood [10] is listed as “poor”. The systemic exposure [10] was “low” and the t1/2 [10] was “long”.
